Source: PMC9127501 (Frontiers in Microbiology, 2022)
Several values for one entry are separate records, joined by “and”; a condition that tells them apart may be missing. Equal values may be shown once. Read-outs that look alike come from different tables or passages of the source.

Tests used:
HCoV-229E [1] = assay: MTT-based antiviral assay (protection from virus-induced CPE) in HCoV-229E-infected MRC-5 cells; format: cell-based, Human Coronavirus strain 229E; settings: for maximum antiviral effect: MRC-5, maximum over concentrations tested; for % Antiviral Activity (Range) / EC50: HCoV-229E-infected MRC-5, 6 days; for % Antiviral Activity (Range): range over the assay conc. range of each compound; for EC50: MRC5, 144 h, no unit in head (assay conc. and CC50 columns in µM)
in vitro [2] = settings: human
recombinant SCoV-2 PLpro = recombinant SCoV-2 PLpro (Severe acute respiratory syndrome coronavirus 2, UniProt P0DTD1); assay: SCoV-2 PLpro inhibition assay (peptide-AMC fluorescence); format: biochemical, SARS-CoV-2; settings: 60 μM peptide-AMC, 37°C, 45 min
SCoV-2 [3] = system: SCoV-2; parameters: method as in Meyer et al., [2020]; settings: at clinically relevant concentrations; ref Meyer et al., [2020]; cited from earlier work
HCoV-229E [4] = assay: qRT-PCR viral load in supernatants of HCoV-229E-infected MRC-5 cells; format: cell-based, Human Coronavirus strain 229E
PLpro = settings: reported value, reference not printed at the place; cited from earlier work
[5] = Cytotoxicity assay in Vero E6 cells (Hoechst 33342 / Sytox orange imaging); settings: African green monkey
Vero E6 cells = assay: as above; settings: for cytotoxicity: Vero E6
SCoV-2 [6] = assay: Immunofluorescence antiviral screening assay (SCoV-2 nucleocapsid staining) in Vero E6 cells; format: cell-based, SARS-CoV-2
Description: The antiviral activity of the selected compound against SCoV-2 was analysed by immunofluorescent assay in a 96-well plate. For this, ~10^4 Vero E6 cells per well were seeded and grown to ≥80% confluency. At this stage, cells in replicate wells were treated with a safe dose (identified from the cytotoxicity studies) of the selected compound or with 10μM Remdesivir. These assays also included the necessary negative controls for comparison. The cells were infected with SCoV-2 at 0.1 MOI and, post-30 h incubation, fixed in 4% paraformaldehyde, permeabilized with 0.3% Tween-20 and stained with anti-mouse mAb specific to SCoV-2 Nucleocapsid (primary) followed by staining with Alexafluor 568-labelled anti-mouse antibody (secondary). Prior to mounting, monolayers were treated with Hoechst 33342 to stain the nuclei and the images were captured using ImageXpress Micro Confocal (Molecular devices) at 10 × magnification (16 images/well). The data was analysed in MetaXpress software using a multi-wavelength cell scoring module and the cells double-positive for the viral nucleocapsid as well as nuclei were counted and compared with that in the controls.

in vitro [7] = settings: African green monkey, % Cell Viability, Vero E6, 30 h
[8] = MRC-5 cells (human lung fibroblasts), uninfected
[9] = MRC-5, across the tested concentrations
[10] = HCoV-229E-infected MRC-5, 6 days, range over the assay conc. range

In the case of `C[C@H]1O[C@H](O[C@H]2[C@H](O)[C@@H](O)[C@@H](O[C@H]3[C@H](O)[C@@H](O)C(O)O[C@@H]3CO)O[C@@H]2CO)[C@H](O)[C@@H](O)[C@@H]1N[C@H]1C=C(CO)[C@@H](O)[C@H](O)[C@H]1O` (stereo partly shown) [Acarbose], the maximum antiviral effect (HCoV-229E [1]; HCoV-229E) is reported as “about 8%”, the “% Antiviral Activity (Range)” value (HCoV-229E [1]) is reported as “+0.3 to +7.2%” and the EC50 (HCoV-229E [1]; Human coronavirus 229E) is reported as greater than 7750 µM. For the same molecule, the CC50 at 6 days (in vitro [2]) was greater than 7750 µM, the cytotoxicity at 6 days (in vitro [2]) was -15 to 7% and the IC50 (recombinant SCoV-2 PLpro; IC50, 100 nM PLpro) was 2000 ± 280 µM. The maximum cytotoxicity (MRC-5 cells; human) was less than 15%.
For `CC(C)CN(C[C@@H](O)[C@H](Cc1ccccc1)NC(=O)O[C@H]1CO[C@H]2OCC[C@H]21)S(=O)(=O)c1ccc(N)cc1` [Darunavir], the “activity against SCoV-2 (in words)” value (SCoV-2 [3]) is given as “completely ineffective”, the cytotoxicity (in vitro [2]) is given as -14.4 to 97.2% and the viability (in vitro [2]) is given as 44.5%. For the same molecule, the “% Reduction in Viral Load (Range)” value (HCoV-229E [4]) was 0.0 to +97.6%, the “Log10 Reduction in Viral Load (Range)” value (HCoV-229E [4]) was 0.0 to +1.62 Log10 and the “log10 inhibition / reduction in viral load” value (HCoV-229E [4]) was 1.42 log10. The “reduction in viral titers” value (HCoV-229E [4]) was “about 96%” and the IC50 (recombinant SCoV-2 PLpro; 100 nM PLpro, read-out: IC50) was 1320 ± 200 µM.
For `Cc1cc2nc3c(=O)[nH]c(=O)nc-3n(C[C@H](O)[C@H](O)[C@H](O)COP(=O)(O)OP(=O)(O)OC[C@H]3O[C@@H](n4cnc5c(N)ncnc54)[C@H](O)[C@@H]3O)c2cc1C` [FAD, Flavin adenine dinucleotide], the maximum antiviral effect (HCoV-229E [1]; HCoV-229E) was “about 8%”, the “% Antiviral Activity (Range)” value (HCoV-229E [1]) was -1.3 to +8.1% and the EC50 (HCoV-229E [1]; Human coronavirus 229E) was greater than 1200 µM. The CC50 at 6 days (in vitro [2]; [8]) was greater than 1200 µM, the cytotoxicity at 6 days (in vitro [2]; [8]) was -10.5 to 12.7% and the IC50 (recombinant SCoV-2 PLpro; IC50, 100 nM PLpro) was ~127 µM and 127 µM. It also gave a maximum cytotoxicity (MRC-5 cells; [9]) of less than 15%.
For `NC(=O)c1nc(F)c[nH]c1=O` [Favipiravir], the “protection from virus-induced CPE” value (HCoV-229E [1]; 250 μM, HCoV-229E, MRC-5) was “failed to show any obvious protection”, the “% Antiviral Activity (Range)” value (HCoV-229E [1]) was -0.6 to +26.9% and the inhibition at 500 µM (HCoV-229E [1]; Human coronavirus 229E, MRC5, 500 μM, HCoV-229E, MRC-5, read-out: cells in which virus-induced CPE was inhibited) was roughly 17%. For the same molecule, the CC50 at 6 days (in vitro [2]) was 665 µM, the cytotoxicity at 6 days (in vitro [2]) was -8.1 to 67.5% and the “% Reduction in Viral Load (Range)” value (HCoV-229E [4]; [10]) was 0.0 to +81.6%. The “Log10 Reduction in Viral Load (Range)” value (HCoV-229E [4]; [10]) was “+0.74 to 0.0 Log10”.
With `Cc1ccc(N)cc1C(=O)N[C@H](C)c1cccc2ccccc12` [GRL0617, (R)-5-amino-2-methyl-N-(1-(naphthalen-1-yl)ethyl) benzamide] the “% Antiviral Activity (Range)” value (HCoV-229E [1]) was -1.9 to +33.7%, the CC50 at 6 days (in vitro [2]) was 137 µM and the cytotoxicity at 6 days (in vitro [2]) was 6.2 to 76%. The “% Reduction in Viral Load (Range)” value (HCoV-229E [4]; [10]) was “Inconsistent”, the “Log10 Reduction in Viral Load (Range)” value (HCoV-229E [4]; [10]) was “Inconsistent” and the IC50 (PLpro) was […].
For `OC[C@@H](O)[C@@H](O[C@@H]1O[C@H](CO)[C@H](O)[C@H](O)[C@H]1O)[C@H](O)[C@@H](O)CO` [Lactitol], the maximum antiviral effect (HCoV-229E [1]; HCoV-229E) was “about 8%”, the “% Antiviral Activity (Range)” value (HCoV-229E [1]) was -1.2 to +5.3% and the EC50 (HCoV-229E [1]; Human coronavirus 229E) was greater than 2900 µM. The CC50 at 6 days (in vitro [2]; [8]) was greater than 2900 µM, the cytotoxicity at 6 days (in vitro [2]; [8]) was -8.9 to 1.8% and the IC50 (recombinant SCoV-2 PLpro; IC50, 100 nM PLpro) was 8800 ± 500 µM. For the same molecule, the maximum cytotoxicity (MRC-5 cells; [9]) was less than 15%.
In the case of `Cc1cccc(C)c1OCC(=O)N[C@@H](Cc1ccccc1)[C@@H](O)C[C@H](Cc1ccccc1)NC(=O)[C@H](C(C)C)N1CCCNC1=O` [Lopinavir], the “Selectivity Index (CC50/EC50)” value (HCoV-229E [1]; HCoV-229E, MRC-5) is reported as 2.03, the “% Antiviral Activity (Range)” value (HCoV-229E [1]) is reported as -6.3 to +72.4% and the EC50 (HCoV-229E [1]; Human coronavirus 229E) is reported as 33 µM. The CC50 at 6 days (in vitro [2]) was 67 µM, the cytotoxicity at 6 days (in vitro [2]) was -9.6 to 99.9% and the “log10 inhibition / reduction in viral load” value (HCoV-229E [4]; 40 μM, HCoV-229E, MRC-5) was ~ 1.4 log10 and 1.42 log10. For the same molecule, the “reduction in viral titers” value (HCoV-229E [4]; 40 μM, HCoV-229E, MRC-5) was “about 96%”, the “% Reduction in Viral Load (Range)” value (HCoV-229E [4]; [10]) was “+96.2 to +29.1%” and the “Log10 Reduction in Viral Load (Range)” value (HCoV-229E [4]; [10]) was “+1.42 to +0.15 Log10”. It also gave an IC50 (recombinant SCoV-2 PLpro; IC50, 100 nM PLpro) of 1000 ± 100 µM.
For `OC(c1cc(C(F)(F)F)nc2c(C(F)(F)F)cccc12)C1CCCCN1` (stereo not shown) [Mefloquine], the “protection from virus-induced CPE” value (HCoV-229E [1]; 120 μM, HCoV-229E, MRC-5) was ~ 62% and ~ 60%, the “% Antiviral Activity (Range)” value (HCoV-229E [1]) was -0.4 to +60.6% and the EC50 (HCoV-229E [1]; Human coronavirus 229E) was 108 µM. It also gave a viability at 30 h, 0.5 µM [5] of 93.2%, a viability at 30 h, 5 µM [5] of 45.6% and a cytotoxicity (Vero E6 cells; 0.5 μM) of 7%. The cytotoxicity (Vero E6 cells; 5 μM) was “about 45%”, the “% Inhibition (SCoV-2 N-positive cells)” value (SCoV-2 [6]; 0.5 µM (500 nM), SCoV-2-infected Vero E6, 30 h, 0.5 µM) was 30% and 30.6% and the inhibition at 0.5 µM (SCoV-2 [6]; Severe acute respiratory syndrome coronavirus 2, Vero C1008, 30 h, read-out: % Inhibition (SCoV-2 N-positive cells), 0.5 µM (500 nM), SCoV-2-infected Vero E6, 30 h) was roughly 31%. The CC50 at 6 days (in vitro [2]; [8]) was 173 µM, the cytotoxicity at 6 days (in vitro [2]; [8]) was 11.5 to 93.2% and the “log10 inhibition of viral titers” value (HCoV-229E [4]; 120 μM, HCoV-229E, MRC-5) was roughly 0.8 log10. For the same molecule, the “reduction in viral titers” value (HCoV-229E [4]; 120 μM, HCoV-229E, MRC-5) was 84.7%, the “% Reduction in Viral Load (Range)” value (HCoV-229E [4]; [10]) was “+84.7 to +38.4%” and the “Log10 Reduction in Viral Load (Range)” value (HCoV-229E [4]; [10]) was “+0.81 to +0.21 Log10”. For the same molecule, the IC50 (recombinant SCoV-2 PLpro; IC50, 100 nM PLpro) was ~459 µM and 459 µM.
In the case of `CCC(CC)COC(=O)[C@H](C)N[P@](=O)(OC[C@H]1O[C@@](C#N)(c2ccc3c(N)ncnn23)[C@H](O)[C@@H]1O)Oc1ccccc1` [Remdesivir], the “% Cell Viability” value (Vero E6 cells; 10 µM, Vero E6, 30 h) is reported as 99.23%, the “% Inhibition (SCoV-2 N-positive cells)” value (SCoV-2 [6]; 10 µM, SCoV-2-infected Vero E6, 30 h) is reported as 99.2% and the “cells protected from SCoV-2-induced CPE” value (SCoV-2 [6]; 10 μM, Vero E6) is reported as greater than 99%. For the same molecule, the inhibition at 10 µM (SCoV-2 [6]; Severe acute respiratory syndrome coronavirus 2, Vero C1008, 30 h, 10 µM, SCoV-2-infected Vero E6, 30 h, read-out: % Inhibition (SCoV-2 N-positive cells)) was greater than 99% and the viability at 10 µM (in vitro [7]) was greater than 99%.
In the case of `CC(C)c1nc(CN(C)C(=O)N[C@H](C(=O)N[C@@H](Cc2ccccc2)C[C@H](O)[C@H](Cc2ccccc2)NC(=O)OCc2cncs2)C(C)C)cs1` [Ritonavir], the “protection from virus-induced CPE” value (HCoV-229E [1]; 70 μM, HCoV-229E, MRC-5) is reported as “about 35%”, the “% Antiviral Activity (Range)” value (HCoV-229E [1]) is reported as -3.8 to +36.4% and the cytotoxicity at 6 days (in vitro [2]; [8]) is reported as 20.6 to 100%. The “log10 inhibition / reduction in viral load” value (HCoV-229E [4]; 70 μM, HCoV-229E, MRC-5) was roughly 0.6 log10, the “reduction in viral titers” value (HCoV-229E [4]; 70 μM, HCoV-229E, MRC-5) was 73.3% and the “% Reduction in Viral Load (Range)” value (HCoV-229E [4]; [10]) was “+73.3 to -625.5%”. The “Log10 Reduction in Viral Load (Range)” value (HCoV-229E [4]; [10]) was “+0.57 to -0.86 Log10”.
For `C[C@@H]1O[C@@H](OC[C@H]2O[C@@H](Oc3c(-c4ccc(O)c(O)c4)oc4cc(O)cc(O)c4c3=O)[C@H](O)[C@@H](O)[C@@H]2O)[C@H](O)[C@H](O)[C@H]1O` [Rutin], the “virus-infected cells protected from virus-induced CPE” value (HCoV-229E [1]; HCoV-229E, MRC-5, concentration not stated at the place) was “about 37%”, the “% Antiviral Activity (Range)” value (HCoV-229E [1]) was -1.1 to +37.1% and the CC50 (in vitro [2]) was 351 µM. The cytotoxicity (in vitro [2]) was -5.9 to 89.5%, the “log10 inhibition / reduction in viral titers” value (HCoV-229E [4]) was roughly 0.2 log10 and the “reduction in viral titers” value (HCoV-229E [4]) was 38.44%. The “% Reduction in Viral Load (Range)” value (HCoV-229E [4]; [10]) was “+38.4 to -455.4%” and the “Log10 Reduction in Viral Load (Range)” value (HCoV-229E [4]; [10]) was “+0.21 to -0.74 Log10”.
